# Reference: patent US20230295087A1, “AGONISTS OF ROR GAMMAt” (BRISTOL-MYERS SQUIBB COMPANY, priority 2019, published 2023)
# Target: T1, human RORgT (Homo sapiens, UniProt P51449)
# T1 construct: expressed in transfected cells
# T1 sequence (P51449 267-516): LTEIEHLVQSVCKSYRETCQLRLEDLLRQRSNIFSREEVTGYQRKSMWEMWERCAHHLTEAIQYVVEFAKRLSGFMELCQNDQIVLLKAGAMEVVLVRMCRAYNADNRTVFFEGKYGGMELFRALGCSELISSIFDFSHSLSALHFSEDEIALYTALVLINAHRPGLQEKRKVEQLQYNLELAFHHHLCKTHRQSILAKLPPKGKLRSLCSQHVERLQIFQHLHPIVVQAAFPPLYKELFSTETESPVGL
# Test: RORgT Gal4 Luciferase Reporter Gene Assay
# Type: cell-based
# Details: engineered Jurkat cells overexpressing RORgT (LBD or full length) fused with Gal4 Luc reporter; 18 hours at 37° C.; luminescence
# How it was run: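 Jurkat cells expressing Gal4 Luc with either RORgT LBD (aa267-516) or full-length human RORgT, 10,000 cells/well, treated with compound (40 µM to 0.67 nM final, 3-fold dilutions) for 18 h at 37° C. Steady-Glo luminescence read; inhibition of constitutive activity as % signal-window reduction relative to a control compound.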
row,SMILES,EC50 [nM]
1,"CC(C)(O)C(=O)N1CC[C@@]2(S(=O)(=O)c3ccccc3)c3ccc(OCc4c(Cl)cccc4Cl)cc3CC[C@@H]12 [Example 72, 1-[(3aR,9bR)-9b-(benzenesulfonyl)-7-[(2,6-dichlorophenyl)methoxy]-1H,2H,3H,3aH,4H,5H,9bH-benzo[e]indol-3-yl]-2-hydroxy-2-methylpropan-1-one]",199
2,"O=C(C1CCS(=O)(=O)CC1)N1CC[C@@]2(S(=O)(=O)c3ccccc3)c3ccc(OCc4cc(F)ccc4Cl)cc3CC[C@@H]12 [Example 130, 4-[(3aR,9bR)-9b-(benzenesulfonyl)-7-[(2-chloro-5-fluorophenyl)methoxy]-1H,2H,3H,3aH,4H,5H,9bH-benzo[e]indole-3-carbonyl]-1λ^6-thiane-1,1-dione]",12
3,"CCOC(=O)CNC(=O)N1CC[C@@]2(S(=O)(=O)c3ccccc3)c3ccc(OCc4c(Cl)cccc4Cl)cc3CC[C@@H]12 [Example 73, ethyl 2-{[(3aR,9bR)-9b-(benzenesulfonyl)-7-[(2,6-dichlorophenyl)methoxy]-1H,2H,3H,3aH,4H,5H,9bH-benzo[e]indole-3-carbonyl]amino}acetate]",314
4,"O=C(N1CC[C@@]2(S(=O)(=O)c3ccc(F)cc3)c3ccc(OCc4ccc(F)cc4Cl)cc3CC[C@@H]12)C1(O)CCS(=O)(=O)CC1 [Example 104, 4-[(3aR,9bR)-7-[(2-chloro-4-fluorophenyl)methoxy]-9b-(4-fluorobenzenesulfonyl)-1H,2H,3H,3aH,4H,5H,9bH-benzo[e]indole-3-carbonyl]-4-hydroxy-1λ^6-thiane-1,1-dione]",5.6
5,"CC(=O)NC1CC2(C1)CC(C(=O)N1CC[C@@]3(S(=O)(=O)c4ccccc4)c4ccc(OCc5c(Cl)cccc5Cl)cc4CC[C@@H]13)C2 (stereo partly drawn) [Example 67, N-{6-[(3aR,9bR)-9b-(benzenesulfonyl)-7-[(2,6-dichlorophenyl)methoxy]-1H,2H,3H,3aH,4H,5H,9bH-benzo[e]indole-3-carbonyl]spiro[3.3]heptan-2-yl}acetamide]",416
6,"O=C(O)[C@H]1CC[C@H](C(=O)N2CC[C@@]3(S(=O)(=O)c4ccc(F)cc4)c4ccc(COc5c(Cl)cccc5Cl)cc4CC[C@@H]23)CC1 [Example 6, (1R,4r)-4-((3aR,9bR)-7-((2,6-dichlorophenoxy)methyl)-9b-((4-fluorophenyl)sulfonyl)-2,3,3a,4,5,9b-hexahydro-1H-benzo[e]indole-3-carbonyl)cyclohexanecarboxylic acid]",2.4
7,"Cc1ccccc1Cc1ccc2c(c1)CC[C@H]1N(C(=O)C3(C)CCS(=O)(=O)CC3)CC[C@@]21S(=O)(=O)c1ccc(F)cc1 [Example 46, 4-[(3aR,9bR)-9b-(4-fluorobenzenesulfonyl)-7-[(2-methylphenyl)methyl]-1H,2H,3H,3aH,4H,5H,9bH-benzo[e]indole-3-carbonyl]-4-methyl-1λ^6-thiane-1,1-dione]",2.7
8,"O=C(O)[C@H]1CC[C@H](C(=O)N2CC[C@@]3(S(=O)(=O)c4ccc(F)cc4)c4ccc(OCc5c(F)cccc5Cl)cc4CC[C@@H]23)CC1 [Example 1, (1r,4r)-4-[(3aR,9bR)-7-[(2-chloro-6-fluorophenyl)methoxy]-9b-(4-fluorobenzenesulfonyl)-1H,2H,3H,3aH,4H,5H,9bH-benzo[e]indole-3-carbonyl]cyclohexane-1-carboxylic acid]",8.4
9,"CN1CC(C(=O)N2CC[C@@]3(S(=O)(=O)c4ccccc4)c4ccc(OCc5c(Cl)cccc5Cl)cc4CC[C@@H]23)CC1=O (stereo partly drawn) [Example 77, 4-[(3aR,9bR)-9b-(benzenesulfonyl)-7-[(2,6-dichlorophenyl)methoxy]-1H,2H,3H,3aH,4H,5H,9bH-benzo[e]indole-3-carbonyl]-1-methylpyrrolidin-2-one]",19
10,"O=C(O)[C@H]1CC[C@](O)(C(=O)N2CC[C@@]3(S(=O)(=O)c4ccc(F)cc4)c4ccc(OCc5c(F)cccc5Cl)cc4CC[C@@H]23)CC1 [Example 23, (1s,4s)-4-[(3aR,9bR)-7-[(2-chloro-6-fluorophenyl)methoxy]-9b-(4-fluorobenzenesulfonyl)-1H,2H,3H,3aH,4H,5H,9bH-benzo[e]indole-3-carbonyl]-4-hydroxycyclohexane-1-carboxylic acid]",55
11,"CC(C)(O)CCNC(=O)N1CC[C@@]2(S(=O)(=O)c3ccccc3)c3ccc(OCc4c(Cl)cccc4Cl)cc3CC[C@@H]12 [Example 86, (3aR,9bR)-9b-(benzenesulfonyl)-7-[(2,6-dichlorophenyl)methoxy]-N-(3-hydroxy-3-methylbutyl)-1H,2H,3H,3aH,4H,5H,9bH-benzo[e]indole-3-carboxamide]",159
12,"O=C(C1CCS(=O)(=O)C1)N1CC[C@@]2(S(=O)(=O)c3ccccc3)c3ccc(OCc4c(F)cccc4Cl)cc3CC[C@@H]12 (stereo partly drawn) [Example 135, 3-[(3aR,9bR)-9b-(benzenesulfonyl)-7-[(2-chloro-6-fluorophenyl)methoxy]-1H,2H,3H,3aH,4H,5H,9bH-benzo[e]indole-3-carbonyl]-1λ^6-thiolane-1,1-dione]",9.7

# Now from value to compound:
row,EC50 [nM],SMILES
1,9.5,"O=C(O)[C@H]1CC[C@H](C(=O)N2CC[C@@]3(S(=O)(=O)c4ccc(F)cc4)c4ccc(OCc5cc(Cl)ccc5Cl)cc4CC[C@@H]23)CC1 [Example 205, (1r,4r)-4-[(3aR,9bR)-7-[(2,5-dichlorophenyl)methoxy] -9b-(4-fluorobenzenesulfonyl)-1H,2H,3H,3aH,4H,5H,9bH-benzo[e]indole-3-carbonyl]cyclohexane-1-carboxylic acid]"
2,13,"O=C(O)[C@H]1CC[C@H](C(=O)N2CC[C@@]3(S(=O)(=O)c4ccccc4)c4ccc(OCc5c(F)cccc5Cl)cc4CC[C@@H]23)CC1 [Example 142, (1r,4r)-4-[(3aR,9bR)-9b-(benzenesulfonyl)-7-[(2-chloro-6-fluorophenyl)methoxy]-1H,2H,3H,3aH,4H,5H,9bH-benzo[e]indole-3-carbonyl]cyclohexane-1-carboxylic acid]"
3,104,"O=C(O)C12CCC(C(=O)N3CC[C@@]4(S(=O)(=O)c5ccccc5)c5ccc(OCc6c(F)cccc6Cl)cc5CC[C@@H]34)(CC1)CC2 [Example 147, 4-[(3aR,9bR)-9b-(benzenesulfonyl)-7-[(2-chloro-6-fluorophenyl)methoxy]-1H,2H,3H,3aH,4H,5H,9bH-benzo[e]indole-3-carbonyl]bicyclo[2.2.2]octane-1-carboxylic acid]"
4,1.1,"O=C(O)[C@H]1CC[C@H](C(=O)N2CC[C@@]3(S(=O)(=O)c4ccc(F)cc4)c4ccc(CCc5c(Cl)cccc5Cl)cc4CC[C@@H]23)CC1 [Example 159, (1r,4r)-4-[(3aR,9bR)-7-[2-(2,6-dichlorophenyl)ethyl]-9b-(4-fluorobenzenesulfonyl)-1H,2H,3H,3aH,4H,5H,9bH-benzo[e]indole-3-carbonyl]cyclohexane-1-carboxylic acid]"
5,4.3,"N#CCCN1C(=O)CC[C@H]1C(=O)N1CC[C@@]2(S(=O)(=O)c3ccc(F)cc3)c3ccc(OCc4cc(Cl)ccc4Cl)cc3CC[C@@H]12 [Example 157, 3-[(2S)-2-[(3aR,9bR)-7-[(2,5-dichlorophenyl)methoxy]-9b-(4-fluorobenzenesulfonyl)-1H,2H,3H,3aH,4H,5H,9bH-benzo[e]indole-3-carbonyl]-5-oxopyrrolidin-l-yl]propanenitrile]"
6,28,"CC(=O)N1CCC(C(=O)N2CC[C@@]3(S(=O)(=O)c4ccc(F)cc4)c4ccc(OCc5ccc(F)cc5Cl)cc4CC[C@@H]23)CC1 [Example 207, 1-{4-[(3aR,9bR)-7-[(2-chloro-4-fluorophenyl)methoxy]-9b-(4-fluorobenzenesulfonyl)-1H,2H,3H,3aH,4H,5H,9bH-benzo[e]indole-3-carbonyl]piperidin-1-yl}ethan-1-one]"
7,90,"NS(=O)(=O)CC(=O)N1CC[C@@]2(S(=O)(=O)c3ccc(F)cc3)c3ccc(OCc4c(F)cccc4C(F)(F)F)cc3CC[C@@H]12 [Example 185, 2-[(3aR,9bR)-7-{[2-fluoro-6-(trifluoromethyl)phenyl]methoxy}-9b-(4-fluorobenzenesulfonyl)-1H,2H,3H,3aH,4H,5H,9bH-benzo[e]indol-3-yl]-2-oxoethane-1-sulfonamide]"
8,189,"NS(=O)(=O)CC(=O)N1CC[C@@]2(S(=O)(=O)c3ccc(F)cc3)c3ccc(OCc4cc(F)ccc4Cl)cc3CC[C@@H]12 [Example 194, 2-[(3aR,9bR)-7-[(2-chloro-5-fluorophenyl)methoxy]-9b-(4-fluorobenzenesulfonyl)-1H,2H,3H,3aH,4H,5H,9bH-benzo[e]indol-3-yl]-2-oxoethane-1-sulfonamide]"
9,8.8,"O=C1CC[C@@H](C(=O)N2CC[C@@]3(S(=O)(=O)c4ccccc4)c4ccc(OCc5c(F)cccc5Cl)cc4CC[C@@H]23)N1 [Example 138, (5S)-5-[(3aR,9bR)-9b-(benzenesulfonyl)-7-[(2-chloro-6-fluorophenyl)methoxy]-1H,2H,3H,3aH,4H,5H,9bH-benzo[e]indole-3-carbonyl]pyrrolidin-2-one]"
10,168,"CS(=O)(=O)CC(=O)N1CC[C@@]2(S(=O)(=O)c3ccc(F)cc3)c3ccc(OCc4c(F)cc(F)cc4Cl)cc3CC[C@@H]12 [Example 217, 1-[(3aR,9bR)-7-[(2-chloro-4,6-difluorophenyl)methoxy]-9b-(4-fluorobenzenesulfonyl)-1H,2H,3H,3aH,4H,5H,9bH-benzo[e]indol-3-yl]-2-methanesulfonylethan-1-one]"
11,49,"O=C(CN1CCS(=O)(=O)CC1)N1CC[C@@]2(S(=O)(=O)c3ccc(F)cc3)c3ccc(OCc4cc(Cl)ccc4Cl)cc3CC[C@@H]12 [Example 197, 4-{2-[(3aR,9bR)-7-[(2,5-dichlorophenyl)methoxy] -9b-(4-fluorobenzenesulfonyl)-1H,2H,3H,3aH,4H,5H,9bH-benzo[e]indol-3-yl]-2-oxoethyl}-1λ^6-thiomorpholine-1,1-dione]"
